Where a name gives a salt, the structure may show the parent alone. Read-outs that look alike come from different tables or passages of the source.
System: murine neural precursor cells (neurosphere cultures)
Experiment: HTS of LOPAC library against secondary neurosphere cultures, MTT proliferation assay at 3 μM, day 7 (z score, P value)
Assay type: cell-based, mouse
[1] = LOPAC library screen at 3 μM, secondary neurosphere cultures, MTT
[2] = LOPAC screen, neurosphere MTT proliferation, 3 μM, day 7
[3] = yes/no: significantly inhibited neurosphere proliferation (P<0.01) in primary screen
[4] = LOPAC library screen, 3 μM, MTT, neurosphere cultures
[5] = LOPAC primary screen, neurosphere MTT proliferation, 3 μM, day 7
[6] = yes = significantly inhibited neurosphere proliferation (P<0.01) in the primary screen
[7] = primary LOPAC screen, 3 μM, MTT, neurosphere proliferation
[8] = yes/no: significantly inhibited neurosphere proliferation in the primary screen
[9] = yes/no: significantly inhibited neurosphere proliferation (P<0.01) in the primary screen
[10] = yes/no: significantly inhibited neurosphere proliferation in primary screen
[11] = LOPAC library screen, 3 μM, MTT, secondary neurosphere cultures, day 7

In the case of O=C1NC(=O)C(c2ccccc2)(c2ccccc2)N1 [Phenytoin sodium], the “Z Score” value [1] is reported as −0.2166, the Z score [2] is reported as −0.217 and the Activity [3] is reported as “no”.
With COCC(=O)O[C@]1(CCN(C)CCCc2nc3ccccc3[nH]2)CCc2cc(F)ccc2[C@@H]1C(C)C [Mibefradil dihydrochloride] the “Z Score” value [4] was −0.02693, the Z score [5] was −0.027 and the Activity [6] was “no”.
N#CC(=C(/N)Sc1ccccc1N)/C(C#N)=C(/N)Sc1ccccc1N [U0126] was tested, and the “Z Score” value was 0.711, the Z score [7] was 0.711 and the Activity [8] was “no”.
O=C1Nc2ccc(I)cc2/C1=C/c1cc(Br)c(O)c(Br)c1 [GW5074] was tested, and the “Z Score” value was −0.1619, the Z score [5] was −0.162 and the Activity [3] was “no”.
With COC(=O)[C@H](NC(=O)c1cc(-c2ccccc2)nc2ccccc12)c1ccccc1 [SB 218795] the “Z Score” value was 1.359, the Z score [5] was 1.359 and the Activity [3] was “no”.
In the case of O=Nc1ccc2oc(=O)ccc2c1 [6-Nitroso-1,2-beazopyrone], the “Z Score” value is reported as 0.01132.
In the case of Nc1nc2[nH]c(=O)cnc2c(=O)[nH]1 [Isoxanthopterin], the “Z Score” value is reported as 0.2339, the Z score [5] is reported as 0.234 and the Activity [3] is reported as “no”.
For O=C(Nc1cccc(C(=O)Nc2ccc(S(=O)(=O)[O-])c3cc(S(=O)(=O)[O-])cc(S(=O)(=O)[O-])c23)c1)Nc1cccc(C(=O)Nc2ccc(S(=O)(=O)[O-])c3cc(S(=O)(=O)[O-])cc(S(=O)(=O)[O-])c23)c1.[Na+].[Na+].[Na+].[Na+].[Na+].[Na+] [NF 023], the “Z Score” value was 1.115, the Z score [5] was 1.115 and the Activity [6] was “no”.
With CCN1CCC[C@H]1CNC(=O)c1c(OC)ccc(I)c1O [S(−)-IBZM] the “Z Score” value was −0.1166, the Z score [5] was −0.117 and the Activity [9] was “no”.
O=C(O)CCC(=O)N1CCC[C@H]1C(=O)O [N-Succinyl-L-proline] was tested, and the “Z Score” value [4] was 0.7246, the Z score [5] was 0.725 and the Activity [10] was “no”.
With NCC1(CC(=O)O)CCCCC1 [Gabapentin] the “Z Score” value was 0.8838, the Z score [5] was 0.884 and the Activity [3] was “no”.
For CN1C(C(=O)Nc2ccccn2)=C(O)c2ccccc2S1(=O)=O [Piroxicam], the “Z Score” value [4] was 0.2527, the Z score [5] was 0.253 and the Activity [6] was “no”.
In the case of CCn1cc(C(=O)O)c(=O)c2cc(F)c(N3CCNC(C)C3)c(F)c21 (stereo not shown) [Lomefloxacin hydrochloride], the Activity is reported as “no”, the “Z Score” value [4] is reported as 0.1374 and the Z score [5] is reported as 0.137.
CC(=O)O.O=C(NCC1CCCCN1)c1cc(OCC(F)(F)F)ccc1OCC(F)(F)F (stereo not shown) [Flecainide acelate] was tested, and the Activity was “no” and the Z score [5] was −1.498.
COC(=O)N1CCN(C(=O)Cc2ccc(Cl)c(Cl)c2)C(CN2CCCC2)C1.O=C(O)/C=C/C(=O)O (racemic) [GR-89696 fumarate] was tested, and the “Z Score” value was −0.7788, the Z score [5] was −0.779 and the Activity [9] was “no”.
In the case of OCc1ccc(-c2nn(Cc3ccccc3)c3ccccc23)o1 [YC-1], the “Z Score” value is reported as 0.4335, the Z score [7] is reported as 0.433 and the Activity [8] is reported as “no”.
In the case of NC(=O)CC[C@H](N)C(=O)O [L-Glutamine], the “Z Score” value (168 h, 3 µM) is reported as 0.8278, the Z score (168 h, 3 µM) is reported as 0.828 and the Activity [3] is reported as “no”.
With c1ccc2c(c1)CCCC2C1=NCCN1 (stereo not shown) [Tetrahydrozoline hydrochloride] the “Z Score” value [1] was −0.4693, the Z score [7] was −0.469 and the Activity [8] was “no”.
O=C(O)C1=CCNCC1 [Isoguvacine hydrochloride] was tested, and the “Z Score” value [11] was −2.22, the Z score [5] was −2.220 and the Activity [3] was “no”.
In the case of CN1CCN(C2=Nc3cc(Cl)ccc3Nc3ccccc32)CC1 [Clozapine], the “Z Score” value (168 h, 3 µM) is reported as 0.5473 and the Z score (168 h, 3 µM) is reported as 0.547.
With C=CCn1c(=O)c2c(nc(-c3ccc(S(=O)(=O)O)cc3)n2C)n(C)c1=O [1-Allyl-3,7-dimethyl-8-p-sulfophenylxanthine] the “Z Score” value [11] was −2.178, the Z score [7] was −2.178 and the Activity [8] was “no”.
In the case of Cc1ccc(S(=O)(=O)N[C@@H](CCCCN)C(=O)CCl)cc1.Cl, the Activity is reported as “no”, the “Z Score” value is reported as 0.004812 and the Z score [5] is reported as 0.005.
In the case of COc1ccc(Cl)cc1C(=O)NCCc1ccc(S(=O)(=O)NC(=O)NC2CCCCC2)cc1 [Glibenclamide], the “Z Score” value [1] is reported as −0.36, the Z score [5] is reported as −0.360 and the Activity [3] is reported as “no”.
O=C(O)/C=C\C(=O)O.O=C(O)/C=C\C(=O)O.c1cc(CN2CCCCC2)cc(OCCCNc2nc3ccccc3s2)c1 [SKF 95282 dimaleate] was tested, and the Z score [7] was 0.424 and the Activity [8] was “no”.
With C[C@]12CCC(=O)C=C1CC[C@@H]1[C@@H]2[C@@H](O)C[C@@]2(C)[C@H]1CC[C@]2(O)C(=O)CO [Hydrocortisone] the “Z Score” value [11] was −3.049, the Z score [5] was −3.049 and the Activity [6] was “yes”.
C=CC[C@H](N)C(=O)O [L-allylglycine] was tested, and the “Z Score” value (168 h, 3 µM) was −1.155, the Z score (168 h, 3 µM) was −1.155 and the Activity [8] was “no”.
For CCCn1cnc2c1c(=O)n(CCCCC(C)=O)c(=O)n2C [Propentofylline], the “Z Score” value [4] was 0.1563, the Z score [5] was 0.156 and the Activity [10] was “no”.
With R(−)-Isoproterenol (+)-bitartrate the “Z Score” value [11] was −1.485, the Z score [5] was −1.485 and the Activity [3] was “no”.
In the case of Br.Br.C=CCN1CCc2c(cc(O)c(O)c2Cl)C(c2ccccc2)C1 (racemic) [(±)-Chloro-APB dihydrobromide], the Z score [2] is reported as −0.111 and the Activity [3] is reported as “no”.
Terbutaline hemisulfate was tested, and the “Z Score” value [4] was 0.6409, the Z score [7] was 0.641 and the Activity [8] was “no”.
For CCN(CC)CC.Nc1ncnc2c1ncn2C1OC2COP(O)(=S)O[C@@H]2[C@@H]1O (stereo partly shown) [Rp-cAMPS triethylamine], the Activity was “no”, the “Z Score” value was 1.186 and the Z score was 1.186.
For CC[C@@H]1C(=O)OC[C@@H]1Cc1cncn1C [Pilocarpine nitrate], the “Z Score” value (168 h, 3 µM) was −1.213, the Z score (168 h, 3 µM) was −1.213 and the Activity [6] was “no”.
CS(=O)(=O)O.Cc1c(C(=O)c2cccc3ccccc23)c2cccc3c2n1[C@H](CN1CCOCC1)CO3 [(R)-(+)-WIN 55,212-2 mesylate] was tested, and the “Z Score” value was −0.6807, the Z score [7] was −0.681 and the Activity [8] was “no”.
In the case of CN1C[C@H](CNC(=O)OCc2ccccc2)C[C@@H]2c3cccc4c3c(cn4C)C[C@H]21 [Metergoline (39), Metergoline, reference compound], the “Z Score” value [11] is reported as −4.342, the Z score [5] is reported as −4.342 and the Activity [9] is reported as “yes”.
For CN1CCc2cc3c(cc2[C@H]1[C@@H]1OC(=O)c2c1ccc1c2OCO1)OCO3 [(+)-Bicuculline], the “Z Score” value was −0.1989, the Z score [5] was −0.199 and the Activity [9] was “no”.
In the case of N=C(N)N/N=C/c1c(Cl)cccc1Cl [Guanabenz acetate], the “Z Score” value [11] is reported as −1.906, the Z score [5] is reported as −1.906 and the Activity [3] is reported as “no”.
In the case of Clc1cccc(Cl)c1N=C1NCCN1 [Clonidine hydrochloride], the “Z Score” value [4] is reported as 1.041, the Z score [2] is reported as 1.041 and the Activity [3] is reported as “no”.
For CCCNC(=O)NS(=O)(=O)c1ccc(Cl)cc1 [Chlorpropamide], the “Z Score” value [1] was −0.1901, the Z score [7] was −0.190 and the Activity [8] was “no”.
CCN(CC)CC#CCOC(=O)C(O)(c1ccccc1)C1CCCCC1 (stereo not shown) [Oxybutynin Chloride] was tested, and the Activity was “no”, the “Z Score” value [4] was 0.708 and the Z score [5] was 0.708.
In the case of C[N+](C)(C)CCC(=O)c1cccc2ccccc12.[I-] [2-(alpha-Naphthoyl)ethyltrimethylammonium iodide], the “Z Score” value (168 h, 3 µM) is reported as −6.762, the Z score (168 h, 3 µM) is reported as −6.762 and the Activity [6] is reported as “yes”.
For NCC(O)(CS(=O)(=O)O)c1ccc(Cl)cc1 (stereo not shown) [2-Hydroxysaclofen], the “Z Score” value [11] was −1.624, the Z score [5] was −1.624 and the Activity [6] was “no”.
In the case of OC(CCN1CCCCC1)(c1ccccc1)C1CCCCC1 (stereo not shown) [Trihexyphenidyl hydrochloride], the “Z Score” value [4] is reported as 1.215.
In the case of CC(C)NP(=O)(NC(C)C)OP(=O)(NC(C)C)NC(C)C [Tetraisopropyl pyrophosphoramide], the “Z Score” value is reported as −1.114, the Z score [7] is reported as −1.114 and the Activity [8] is reported as “no”.
With NCCCNCCSP(=O)(O)O [Amifostine] the “Z Score” value (168 h, 3 µM) was 0.3592, the Z score (168 h, 3 µM) was 0.359 and the Activity [6] was “no”.
COc1cccc(NC(=O)/C=C/c2ccc(Cl)cc2)c1 [SB-366791] was tested, and the “Z Score” value was −1.419, the Z score [5] was −1.419 and the Activity [10] was “no”.
With c1ccc(C2CN3CCSC3=N2)cc1 (stereo not shown) [Tetramisole hydrochloride] the “Z Score” value (LOPAC library screen at 3 μM, MTT, secondary neurosphere cultures, screened in singlets) was 2.649, the Z score [7] was 2.649 and the Activity [8] was “no”.
In the case of CN1C2CCC1CC(OC(=O)c1cc(Cl)cc(Cl)c1)C2 (stereo not shown) [3-Tropanyl-3,5-dichlorobenzoate], the “Z Score” value is reported as −9.272, the Z score [5] is reported as −9.272 and the Activity [9] is reported as “yes”.
For CCCN(CCC)C(=O)C(CCC(=O)O)NC(=O)c1ccccc1 (stereo not shown) [Proglumide], the “Z Score” value [11] was −1.907, the Z score [5] was −1.907 and the Activity [6] was “no”.
For Cc1[nH]c2ccc(O)cc2c1CCN.O=C(O)/C=C\C(=O)O [2-Methyl-5-hydroxytryptamine maleate], the “Z Score” value was 0.5718, the Z score [5] was 0.572 and the Activity [6] was “no”.
For CC(=O)C(C)=NO [2,3-Butanedione monoxime], the “Z Score” value (168 h, 3 µM) was −1.81, the Z score (168 h, 3 µM) was −1.810 and the Activity [8] was “no”.
CC(NC(C)(C)C)C(=O)c1cccc(Cl)c1 (stereo not shown) [Bupropion hydrochloride] was tested, and the “Z Score” value [4] was 0.2671, the Z score [2] was 0.267 and the Activity [3] was “no”.
For CCN(CC)CCOC(=O)c1cc(Cl)c(N)cc1OC.Cl [SDZ-205,557 hydrochloride], the “Z Score” value was −2.681, the Z score [5] was −2.681 and the Activity [9] was “yes”.
For C#C[C@]1(O)CC[C@H]2[C@@H]3CCC4=Cc5nc6nc7ccccc7n6cc5C[C@]4(C)[C@H]3CC[C@@]21C [WIN 62,577], the “Z Score” value was 2.351, the Z score [7] was 2.351 and the Activity [8] was “no”.

From patent publication US8058243B2, “Method for treating a brain cancer with ifenprodil” (HSC Research and Development Limited Partnership, priority 2006, dated 2011)
